Measured values taken from ChEMBL document CHEMBL1649520, “Pharmacokinetics of posaconazole administered orally or by nasogastric tube in healthy volunteers” (Antimicrob Agents Chemother, 2009).

Tests used:
[1] = AUC (0 to infinity) in healthy human at […] administered via nasogastric tube by ITT analysis; format: ADME, organism-based; parameters: route nasogastric, time infinity; conditions: plasma, po
[2] = AUC (0 to infinity) in healthy human at […], po by ITT analysis; format: ADME, organism-based; parameters: time infinity, route oral; conditions: plasma
[3] = AUClast in healthy human at […] administered via nasogastric tube by ITT analysis; format: ADME, organism-based; parameters: time 0 - last, route nasogastric; conditions: plasma, po
[4] = Cmax in healthy human at […] administered via nasogastric tube by ITT analysis; format: ADME, organism-based; parameters: route nasogastric; conditions: in vivo, po
[5] = AUClast in healthy human at […], po by ITT analysis; format: ADME, organism-based; parameters: time 0 - last, route oral; conditions: plasma
[6] = Cmax in healthy human at […], po by ITT analysis; format: ADME, organism-based; parameters: route oral; conditions: in vivo
[7] = Apparent oral clearance in healthy human at […] administered via nasogastric tube; format: ADME, organism-based; parameters: route oral; conditions: in vivo
[8] = Elimination rate in healthy human at […] administered via nasogastric tube; format: ADME, organism-based; conditions: in vivo
[9] = Terminal half life in healthy human at […] administered via nasogastric tube; format: ADME, organism-based; conditions: in vivo
[10] = AUC (0 to infinity) in healthy human at […] administered via nasogastric tube; format: ADME, organism-based; parameters: route nasogastric, time infinity; conditions: plasma, po
[11] = Tmax in healthy human at […] administered via nasogastric tube; format: ADME, organism-based; conditions: in vivo
[12] = AUClast in healthy human at […] administered via nasogastric tube; format: ADME, organism-based; parameters: route nasogastric, time 0 - last; conditions: plasma, po
[13] = Cmax in healthy human at […] administered via nasogastric tube; format: ADME, organism-based; parameters: route nasogastric; conditions: in vivo, po
[14] = Apparent oral clearance in healthy human at […], po; format: ADME, organism-based; parameters: route oral; conditions: in vivo
[15] = Elimination rate in healthy human at […], po; format: ADME, organism-based; parameters: route oral; conditions: in vivo
[16] = Terminal half life in healthy human at […], po; format: ADME, organism-based; parameters: route oral; conditions: in vivo
[17] = AUClast in healthy human at […], po; format: ADME, organism-based; parameters: time 0 - last, route oral; conditions: plasma
[18] = AUC (0 to infinity) in healthy human at […], po; format: ADME, organism-based; parameters: route oral, time infinity; conditions: plasma
[19] = Cmax in healthy human at 400 mg, po; conditions: in vivo
[20] = Tmax in healthy human at 400 mg, po; conditions: in vivo

`CC[C@@H]([C@H](C)O)n1ncn(-c2ccc(N3CCN(c4ccc(OC[C@@H]5CO[C@@](Cn6cncn6)(c6ccc(F)cc6F)C5)cc4)CC3)cc2)c1=O` [POSACONAZOLE] showed an AUC(0-inf) [1] of 7.21 µg·h/mL, an AUC(0-inf) [2] of 9.39 µg·h/mL and an AUC(0-t) [3] of 6.95 µg·h/mL. For the same compound, the Cmax [4] was 0.233 µg/mL, the AUC(0-t) [5] was 9.1 µg·h/mL and the Cmax [6] was 0.289 µg/mL. For the same compound, the CL/F [7] was 990 mL/min, the k el [8] was 8.61e-06 s⁻¹ and the half-life [9] was 23.7 h. For the same compound, the AUC(0-inf) [10] was 8.4 µg·h/mL, the Tmax [11] was 4 h and the AUC(0-t) [12] was 8.03 µg·h/mL. For the same compound, the Cmax [13] was 0.266 µg/mL, the CL/F [14] was 822 mL/min and the k el [15] was 9.72e-06 s⁻¹. The half-life [16] was 21.6 h, the AUC(0-t) [17] was 10.4 µg·h/mL and the AUC(0-inf) [18] was 10.9 µg·h/mL. The Cmax [19] was 0.324 µg/mL and the Tmax [20] was 4 h.
